The source of these data is patent publication US20160015064A1, “COMPOUNDS, COMPOSITIONS, AND METHODS FOR MODULATING SWEET TASTE” (CHROMOCELL CORPORATION, priority 2013, published 2016).

The test system of data set [1] is sweetness enhancement effect and off-taste in lemon-lime beverage. As to the kind of experiment: Sensory assessment / informal tasting of solubilized Compound 3 beverages. Type of data set: in vivo. Conditions: sucrose co-melt. As for the experimental part:
(§1) For example, Compound 3 and polysorbate 80 were accurately weighed into screw-capped glass vials according to Table 9 and heated at 70-90° C. and vortex mixed to facilitate the solubilization. Q-[…]® was added to the 41.5 brix lemon-lime flavored beverage syrup. The polysorbate 80 mixtures were blended into 41.5 brix lemon-lime flavored beverage syrup with Q-[…]® 200 and vortex mixed at 3000 rpm for 75 seconds. The resulting syrups were stored overnight at room temperature. The syrup was then diluted with 5× water to achieve the final 7.7 brix lemon-lime beverage. […] Solution PQ2 was able to maintain clear solution for 1 month.
Because Q-[…]® was able to maintain the stability of the sweet enhancing compounds, it was evaluated in combination with additional solvents. […] In another example, Compound 3, Q-[…]®, and either 1,2-propylene glycol or ethanol 200 proof were accurately weighed into screw-capped glass vials according to Table 10 and heated and vortex mixed to facilitate the solubilization. The resulting solution mixtures were blended into 41.5 brix lemon-lime flavored beverage syrup and vortexed at 3000 rpm for 75 seconds. The resulting syrups were stored overnight at refrigerated temperature and diluted with 5× water to achieve the final 7.7 brix lemon-lime beverage. […]
The ability of sugar to co-melt with compounds of the invention was also evaluated. […]

Data set [2] can be described thus: Solubilization of the compounds in solvents/solubilizers and clarity in lemon-lime beverage. Type of data set: physicochemical. Conditions: for Time final beverage remained a clear solution: sucrose co-melt (caramel-melts), Q-NATURALE® 200. As for the experimental part:
To identify a sufficient delivery mechanism for the sweet enhacing compounds of the present invention, several method of solublization were tested for use in clear beverages. The overall goal was to solubilize the compounds of the invention and have them be deliverable in a clear, carbonated beverage, which can be sweetened with various forms of nutritive and non-nutritive sweeteners without negative flavor impact, i.e. no loss in efficacy (the sweetness perception increase) and no off-flavor formation. In particular, the goal was to identify a delivery mechanism that would allow the compounds to be delivered to the beverage at an “as consumed” level between 10 ppm and 50 ppm. […] The carrier ingredients should not impart any negative physical attributes or negative flavor attributes to the product. An ideal delivery system would not require the labeling of any carrier ingredients and would work with a beverage concentrate model system, preferably a 1+5 concentrate throw.
Initial trials were conducted to dissolve the compound in various flavor type solvents, including ethanol, 200 proof; triacetin; propylene glycol; lemon-lime flavor extract; lemon oil (washed); citrus oil; polysorbate 80; polysorbate 60; polysorbate 20; benzyl alcohol; and NEOBEE® M-5 oil.
In polysorbate formulations, Compound 3 and the polysorbates were accurately weighed into screw-capped glass vials according to Table 8 and heated at 70-90° C. and vortex mixed to facilitate the solubilization. The resulting mixtures were blended into 41.5 brix lemon-lime flavored beverage syrup under stirring and stored overnight at room temperature. The syrup was diluted with 5× water to achieve the final 7.7 brix lemon-lime beverage.
as §1
Because Q-[…]® was able to maintain the stability of the sweet enhancing compounds, it was evaluated in combination with additional solvents. […] In another example, Compound 3, Q-[…]®, and either 1,2-propylene glycol or ethanol 200 proof were accurately weighed into screw-capped glass vials according to Table 10 and heated and vortex mixed to facilitate the solubilization. The resulting solution mixtures were blended into 41.5 brix lemon-lime flavored beverage syrup and vortexed at 3000 rpm for 75 seconds. The resulting syrups were stored overnight at refrigerated temperature and diluted with 5× water to achieve the final 7.7 brix lemon-lime beverage. All solutions (i.e., PGEQ1-PGEQ4) were able to maintain clear solution for 33 days at room temperature and 14 days at refrigerated temperature.
In another example, 40 mg Compound 3 and 1 g rubusoside were weighed into 20 ml glass vials. 20 ml water was added to the vial, which was vortex mixed slightly to form a suspension solution. The suspension was homogenized at 8000 rpm using a Silverson L5M-A to from an emulsion. The emulsion was heated at 121° C. for 1 h. The sample after heating was suspended at room temperature for 24 h to equilibrate and was filtered afterward. The weight ratio between rubusoside and Compound 3 was determined to be 147:1. Therefore, […] rubusoside was needed to solubilize 25 ppm Compound 3.
The ability of sugar to co-melt with compounds of the invention was also evaluated. 30 mg Compound 3 and 150 mg sucrose were dissolved in a solvent mixture of 9 ml ethanol and 1 ml water. […]

Data set [3] concerns sweetness of orange juice beverage. Kind of data set: Panel sweetness of 75% orange juice with Compound 3 compared to 100% orange juice. Type of data set: in vivo. As for the experimental part: Concentrated citrus juice (e.g., orange juice concentrate and lemon juice concentrate) can be used to emulsify flavor oils directly. Dilutions of the Compound 3 were made by dissolving the compound into NEOBEE® M-5 oil at 20 mg/ml and into triacetin at 40 mg/ml. These dilutions were then added to orange juice concentrate (60 brix and 63 brix) and lemon juice concentrate (400 gpl) to deliver a final concentration of 15-30 ppm Compound 3, and blended with the Silverson High Shear Mixer. The juices were diluted to their single strength levels (or less) for final consumption.
In one example, Compound 3 was dissolved into triacetin at a concentration of 40 mg/ml. The Compound 3-triacetin mixture was added to orange juice concentrate (1+3 throw) and blended using a high shear mixer. The concentrate was then diluted to a 75% juice product (8.85 brix) and compared to single strength orange juice (11.8 brix). The test sample contained Compound 3 at 20 ppm. Other test variables using 1+5 were included in the panel. Tests were performed with just Compound 3 in orange juice at full strength and 75%. Compound 3 was dosed at 20 and 30 ppm, and the resulting solutions were tested at day 1, 7, 14, and 21. N varied between 9 and 14 panelists.

Where [4] appears, read: heated at 70-90° C., vortex mixed.

Regarding `COc1ccc(C2CC(=O)c3c(O)cccc3O2)cc1O` (single isomer, unassigned) [Compound 3, 5-hydroxy-2-(3-hydroxy-4-methoxyphenyl)chroman-4-one], the “Sweetness enhancement effect in final beverage (sensory assessment)” value in data set [1] (7.7 brix lemon-lime beverage) is “maintained its sweetness enhancement effect”. Further, the “Off-taste (informal tasting assay)” value in data set [1] (lemon-lime beverage) is recorded as “perceptible off-taste”. The “Precipitation of final beverages” value in data set [2] (encapsulated with alpha-, beta-, gamma-cyclodextrin (molar 1:1, 1:2, 1:4), 25 ppm in 7.7 brix lemon-lime beverage) was “had precipitates”. In data set [2] (setting [4]), the “Dissolution in polysorbate 20” value is “did not dissolve”. The “Dissolution in polysorbate 60” value in data set [2] (setting [4]) is given as “did not dissolve”. The “Precipitation in final beverages” value in data set [2] (polysorbate 80 solutions PS1-PS6, 7.7 brix lemon-lime beverage) is reported as “precipitated overnight”. In addition, the “Time final beverage remained a clear solution” value in data set [2] (7.7 brix lemon-lime beverage, refrigerated temperature) came to 14 days; in data set [2] (7.7 brix lemon-lime beverage, room temperature), 30 days. Also, the “Relative Sweetness Compared to Control (100% OJ)” value in data set [3] (T1: 75% OJ w/20 ppm, Fresh, Day 1 (Fresh)) is “Same as Control”; in data set [3] (T2: 75% OJ w/30 ppm, Aged, Day 21), “added sweetness”; in data set [3] (T2: 75% OJ w/30 ppm, Fresh, Day 1 (Fresh)) it was “Same as Control”.
